Measured values: patent publication US8309685B2 (Celgene Avilomics Research, Inc., priority 2007, dated 2012)
pEC50, pIC50: −log10 of the molar value. Like-named read-outs stand apart in the source and are kept apart here.

What was measured:
[1] = system: HCV RNA replicon in cell line ET (luc-ubi-neo/ET), human Huh7 hepatoma; assay: Method A: HCV RNA replicon antiviral assay (luciferase, ET cell line); type: cell-based, Hepatitis C virus; conditions: Hepatitis C virus, Huh-7, assay described in Example 22; for pIC50: read-out: Replicon (IC50)
In short: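 Six 3-fold dilutions of each drug were tested on subconfluent luc-ubi-neo/ET Huh7 replicon cells (5×10^3/well) for 72 hr at 37 °C. EC50 and EC90 came from luciferase read-out, IC50 from CytoTox-1 cell number, and […]; interferon alpha-2b was run each time as control.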

[2] = biological target: T1, wild type HCV NS3/4A 1b protease enzyme (Hepatitis C virus genotype 1b, UniProt P26663); assay: HCV Protease FRET Assay (IC50_APP), wild type; type: biochemical
T1 construct: 10× stocks of NS3/4A protease enzyme from Bioenza (Mountain View, Calif.); purchased Bioenza (Mountain View, Calif.)

[3] = biological target: T2, A156T mutant of the HCV NS3/4A 1b protease enzyme (Hepatitis C virus genotype 1b, UniProt P26663, A1182T); assay: HCV Protease FRET Assay (IC50_APP), A156T mutant; type: biochemical; conditions: apparent IC50, A156T mutant; read-out: IC50_APP, HCV A156T
T2 construct: 10× stocks of NS3/4A protease enzyme from Bioenza (Mountain View, Calif.); purchased Bioenza (Mountain View, Calif.)

[4] = biological target: T3, D168A mutant of the HCV NS3/4A 1b protease enzyme (Hepatitis C virus genotype 1b, UniProt P26663, D1194A); assay: HCV Protease FRET Assay (IC50_APP), D168A mutant; type: biochemical
T3 construct: 10× stocks of NS3/4A protease enzyme from Bioenza (Mountain View, Calif.); purchased Bioenza (Mountain View, Calif.)

[5] = biological target: T4, R155K mutant of the HCV NS3/4A 1b protease enzyme (Hepatitis C virus genotype 1b, UniProt P26663, R1181K); assay: HCV Protease FRET Assay (IC50_APP), R155K mutant; type: biochemical
T4 construct: 10× stocks of NS3/4A protease enzyme from Bioenza (Mountain View, Calif.); purchased Bioenza (Mountain View, Calif.)
Description: HCV Protease FRET Assay for WT and Mutated NS3/4A 1b Enzymes (IC50—APP).
The following protocol was used to generate “apparent” IC50 (IC50—APP) values as depicted in Table 6, below. […] 5 μL of each enzyme were added to Corning (#3575) 384-well, black, microtiter plates (Corning, N.Y.) after spotting a 0.5 μL volume of 50% DMSO and serially diluted compounds prepared in 50% DMSO. Protease reactions were immediately started after enzyme addition with the addition of 45 μL of the FRET substrate and monitored for 60-90 minutes at λex485/λem520 in a Synergy^4 plate reader from BioTek (Winooski, Vt.). At the conclusion of each assay, progress curves from each well were examined for linear reaction kinetics and fit statistics (R^2, 95% confidence intervals, absolute sum of squares).
The compound numbers correspond to the compound numbers in Table 3. […] ;

[6] = system: HCV RNA replicon in cell line ET (luc-ubi-neo/ET), human Huh7 hepatoma; assay: Luciferase Assay (Example 35), replicon-derived luciferase activity; type: cell-based; conditions: Hepatitis C virus, Huh-7, assay described in Example 35
Description: The compounds were assayed to evaluate the antiviral activity and cytotoxicity of compounds using replicon-derived luciferase activity. This assay used the cell line ET (luc-ubi-neo/ET), which is a human Huh7 hepatoma cell line that contains an HCV RNA replicon with a stable luciferase (Luc) reporter and cell culture-adaptive mutations. The ET cell line was grown in a 5% CO2 incubator at 37° C. in Dulbecco's modified essential media (DMEM) supplemented with 2 mM L-glutamine, nonessential amino acids, 100 U of penicillin/ml, 100 μg of streptomycin/mL, and 10% fetal bovine serum. G418 (Geneticin; Invitrogen) was added at a final concentration of 400 ug//mL.
All cell culture reagents were obtained from Invitrogen (Carlsbad). Cells were trypsinized (1% trypsin:EDTA) and plated out at 5×10^3 cells/well in white 96-well assay plates (Costar) dedicated to cell number (cytotoxicity) or antiviral activity assessments. Test compounds were added at six 3-fold concentrations each and the assay was run in DMEM, 5% FBS, 1% pen-strep, 1% glutamine, 1% non essential amino acid. Human interferon alpha-2b (PBL Biolabs, New Brunswick, N.J.) was included in each run as a positive control compound. Cells were processed 72 hr post test compound addition when the cells were still subconfluent. Antiviral activity was measured by analyzing replicon-derived luciferase activity using the Steady-Glo Luciferase Assay System (Promega, Madison, Wis.) according to manufacturer's instruction. The number of cells in each well was determined by Cell Titer Blue Assay (Promega). Compound profile was derived by calculating applicable EC50 (effective concentration inhibiting virus replication by 50%), EC90 (effective concentration inhibiting virus replication by 90%), IC50 (concentration decreasing cell viability by 50%) and SI50 (selective index: […]) values.

[7] = apparent IC50, D168A mutant; read-out: IC50_APP, HCV D168A
[8] = apparent IC50, R155K mutant; read-out: IC50_APP, HCV R155K
[9] = read-out: IC50_APP, WT, apparent IC50, wild type NS3/4A 1b

Row | Compound | IC90 [1] | pIC50 [1] | pIC50 [2] | pIC50 [3] | pIC50 [4, 7] | pIC50 [5, 8] | pIC50 [2, 9] | EC90 [6] | pEC50 [6] | pIC50 ([4]; read-out: IC50_APP, HCV D168A; apparent IC50, D168A mutant) | pIC50 ([5]; read-out: IC50_APP, HCV R155K; apparent IC50, R155K mutant)
1 | C=CC(=O)NC[C@@H]1NC(=O)OCCC/C=C/c2ccc3ccnc(c3c2)O[C@@H]2C[C@@H](C(=O)N[C@]3(C(=O)NS(=O)(=O)C4CC4)C[C@H]3C=C)N(C2)C1=O [Compound I-77, (1R,2S)-N-1-cyclopropylsulfonylcarboxamido-2-vinylcyclopropyl (2R,4S,7S,14E)-7-acrylamidomethyl-2H-16,18-etheno-2,5-methano-11H-pyrido[2,3-k][1,10,3,6]dioxadiazacyclononadecine-4-ylcarboxamide] | 10 to 100 nM | > 8.00 | > 8.00 | 6.00 to 7.00 | 6.00 to 7.00 | 7.00 to 8.00 |  |  |  |  | 
2 | C=CC(=O)NC[C@H](NC(=O)OC1CCCC1)C(=O)N1C[C@H](Oc2nccc3ccc(-c4cccs4)cc23)C[C@H]1C(=O)N[C@]1(C(=O)NS(=O)(=O)C2CC2)C[C@H]1C=C [Compound I-88, Cyclopentyl-(S)-3-acrylamido-1-((2S,4R)-2-((1R,2S)-1-(cyclopropylsulfonylcarbamoyl)-2-vinylcyclopropylcarbamoyl)-4-(7-(thiophen-2-yl)isoquinolin-1-yloxy)pyrrolidin-1-yl)-1-oxopropan-2-ylcarbamate] | 10 to 100 nM | > 8.00 | > 8.00 |  | 6.00 to 7.00 | 5.00 to 6.00 |  |  |  |  | 
3 | C=C[C@@H]1C[C@]1(NC(=O)[C@@H]1C[C@@H](Oc2nccc3ccc(Br)cc23)CN1C(=O)[C@H](CCC(=O)/C(C)=C/C)NC(=O)OC(C)(C)C)C(=O)NS(=O)(=O)C1CC1 [Compound I-91, {1-[4-(7-Bromo-isoquinolin-1-yloxy)-2-(1-cyclopropanesulfonylaminocarbonyl-2-vinyl-cyclopropylcarbamoyl)-pyrrolidine-1-carbonyl]-5-methyl-4-oxo-hept-5-enyl}-carbamic acid tert-butyl ester] |  |  |  |  | 5.00 to 6.00 | 6.00 to 7.00 | > 8.00 | 100 to 1000 nM | 7.00 to 8.00 |  | 
4 | C=CC(=O)NC[C@H](NC(=O)OC(C)(C)C)C(=O)N1C[C@H](Oc2nccc3cc(OC)ccc23)C[C@H]1C(=O)N[C@]1(C(=O)NS(=O)(=O)C2CC2)C[C@H]1C=C [Compound I-92, {1-(Acryloylamino-methyl)-2-[2-(1-cyclopropanesulfonylaminocarbonyl-2-vinyl-cyclopropylcarbamoyl)-4-(6-methoxy-isoquinolin-1-yloxy)-pyrrolidin-1-yl]-2-oxo-ethyl}-carbamic acid tert-butyl ester] |  |  |  |  | 6.00 to 7.00 | 7.00 to 8.00 | > 8.00 | 100 to 1000 nM | 7.00 to 8.00 |  | 
5 | C=C[C@@H]1C[C@]1(NC(=O)[C@@H]1C[C@@H](Oc2nccc3cc(OC)ccc23)CN1C(=O)[C@H](CCC(=O)/C(C)=C/C)NC(=O)OC(C)(C)C)C(=O)NS(=O)(=O)C1CC1 [Compound I-95, {1-[2-(1-Cyclopropanesulfonylaminocarbonyl-2-vinyl-cyclopropylcarbamoyl)-4-(6-methoxy-isoquinolin-1-yloxy)-pyrrolidine-1-carbonyl]-5-methyl-4-oxo-hept-5-enyl}-carbamic acid tert-butyl ester] |  |  |  |  | 6.00 to 7.00 | 7.00 to 8.00 | > 8.00 | 100 to 1000 nM | 7.00 to 8.00 |  | 
6 | C=CC(=O)NC[C@H](NC(=O)OC(C)(C)C)C(=O)N1C[C@H](Oc2nccc3ccccc23)C[C@H]1C(=O)N[C@]1(C(=O)NS(=O)(=O)C2CC2)C[C@H]1C=C [Compound I-97, {1-(Acryloylamino-methyl)-2-[2-(1-cyclopropanesulfonylaminocarbonyl-2-vinyl-cyclopropylcarbamoyl)-4-(isoquinolin-1-yloxy)-pyrrolidin-1-yl]-2-oxo-ethyl}-carbamic acid tert-butyl ester] |  |  |  |  |  |  | > 8.00 | 100 to 1000 nM | 6.00 to 7.00 | 6.00 to 7.00 | 6.00 to 7.00
7 | C=CC(=O)N(C)C[C@H](NC(=O)OC(C)(C)C)C(=O)N1C[C@H](Oc2nccc3ccccc23)C[C@H]1C(=O)N[C@]1(C(=O)NS(=O)(=O)C2CC2)C[C@H]1C=C [Compound I-98, {1-[(Acryloyl-methyl-amino)-methyl]-2-[2-(1-cyclopropanesulfonylaminocarbonyl-2-vinyl-cyclopropylcarbamoyl)-4-(isoquinolin-1-yloxy)-pyrrolidin-1-yl]-2-oxo-ethyl}-carbamic acid tert-butyl ester] |  |  |  |  | 6.00 to 7.00 | 6.00 to 7.00 | 7.00 to 8.00 | 100 to 1000 nM | 7.00 to 8.00 |  | 
8 | C=CCN(C[C@H](NC(=O)OC(C)(C)C)C(=O)N1C[C@H](Oc2nccc3cc(OC)ccc23)C[C@H]1C(=O)N[C@]1(C(=O)NS(=O)(=O)C2CC2)C[C@H]1C=C)C(=O)C=C [Compound I-99, {1-[(Acryloyl-allyl-amino)-methyl]-2-[2-(1-cyclopropanesulfonylaminocarbonyl-2-vinyl-cyclopropylcarbamoyl)-4-(6-methoxy-isoquinolin-1-yloxy)-pyrrolidin-1-yl]-2-oxo-ethyl}-carbamic acid tert-butyl ester] |  |  |  |  | 5.00 to 6.00 | 6.00 to 7.00 | > 8.00 |  | 7.00 to 8.00 |  | 
9 | C=CC(=O)N[C@H](C)C(=O)N1C[C@H](Oc2nccc3cc(OC)ccc23)C[C@H]1C(=O)N[C@]1(C(=O)NS(=O)(=O)C2CC2)C[C@H]1C=C [Compound I-100] |  |  |  |  | 7.00 to 8.00 | > 8.00 | > 8.00 |  | 7.00 to 8.00 |  | 
10 | C=CC(=O)N[C@@H](C(=O)N1C[C@H](Oc2nccc3cc(OC)ccc23)C[C@H]1C(=O)N[C@]1(C(=O)NS(=O)(=O)C2CC2)C[C@H]1C=C)C(C)C [Compound I-101] |  |  |  |  | 6.00 to 7.00 | 7.00 to 8.00 | > 8.00 |  | 7.00 to 8.00 |  | 
11 | C=C[C@@H]1C[C@]1(NC(=O)[C@@H]1C[C@@H]2CN1C(=O)[C@H](CCC(=O)C=C(C)C)NC(=O)OCCC/C=C/c1ccc3ccnc(c3c1)O2)C(=O)NS(=O)(=O)C1CC1 [Compound I-102] |  |  | > 8.00 |  | 5.00 to 6.00 | 7.00 to 8.00 |  | 10 to 100 nM | > 8.00 |  | 
12 | CC[C@@H]1C[C@]1(NC(=O)[C@@H]1C[C@@H](Oc2nccc3cc(OC)ccc23)CN1C(=O)[C@H](CCC(=O)C=C(C)C)NC(=O)OC(C)(C)C)C(=O)NS(=O)(=O)C1CC1 [Compound I-114] |  |  |  |  |  | 6.00 to 7.00 | > 8.00 |  | 7.00 to 8.00 |  | 
13 | C=C[C@@H]1C[C@]1(NC(=O)[C@@H]1C[C@@H](Oc2nccc3cc(OC)ccc23)CN1C(=O)[C@H](CC(=O)C=C(C)C)NC(=O)OC(C)(C)C)C(=O)NS(=O)(=O)C1CC1 [Compound I-129] |  |  |  |  | 6.00 to 7.00 | 7.00 to 8.00 | > 8.00 |  | > 8.00 |  | 
14 | C=CC(=O)N[C@@H](C(=O)N1C[C@H](Oc2nccc3cc(OC)ccc23)C[C@H]1C(=O)N[C@]1(C(=O)NS(=O)(=O)C2CC2)C[C@H]1C=C)C(C)(C)O [Compound I-130] |  |  |  |  | 6.00 to 7.00 |  | 7.00 to 8.00 |  | 6.00 to 7.00 |  | 
